Data on two molecules can be found in patent US20230312587A1, “PTERIDINONE COMPOUNDS AND USES THEREOF” (Vertex Pharmaceutical Incorporated, priority 2018, published 2023).

In data set [1] the test system is HepG2 cells with CRISPR/Cas9 mediated WFS1 knockout (KO). The data set can be described thus: Calcium flux in parental HepG2 vs HepG2 WFS1 knockout cells. Type of data set: cell-based. Particulars: 30 minutes after compound addition. The text has this: A double cleavage strategy was employed to remove large fragments from the WFS1 locus. Suitable target sites in WFS1 exon 8 were first selected using CRISPR design software to rank suitable target sites and computationally predict off-target sites for each intended target. Six top guide RNA sequences are identified and screened for activity using the Surveyor Mutation Detection Kit (Integrated DNA Technologies). Then, the best 2 guide RNAs were cloned into GeneArt OFP CRISPR nuclease vectors (Thermofisher, Cat #A21174) separately and co-transfected into HepG2 cells using nucleofection (4D Nucleofector X, Lonza). Cells were sorted by FACS 48 hrs later to enrich for the OFP positive cell population. The OFP positive cell population were plated into 96-well plates at 0.5-5 cells/well to isolate clonal cell lines. After allowing cells to expand for 2-3 weeks, plates were inspected for presence of colonies. When colonies became more than 70% confluent, they were dissociated with trypsin and were further expanded. Cell clones with homozygous double cleavage of WFS1 exon 8 were detected with PCR and confirmed with DNA sequencing.

Data set [2] has as its system Hek293 cells over-expressing WFS1. As to the kind of experiment: Calcium flux in Hek293 cells over-expressing WFS1 vs empty vector. Type of data set: cell-based. The settings on record: induction of calcium flux. From the text:
To determine the effect of WFS1 over-expression on compound mediated effects on calcium flux and cell viability, Hek293 cells were transduced with either an empty retroviral vector or a retroviral vector expressing full length WFS1 cDNA. Hek293 cells transduced with the WFS1 encoding retrovirus expressed greater than 100 times the amount of WFS1 protein than empty vector Hek293 cells (FIG. 3).
Background: Calcium flux is commonly read through the fluorescence of an indicator in the cells.

Data set [3] deals with tumor xenografts derived from multiple cancer types. As to the kind of experiment: In vivo efficacy of Compound 136 in various tumor xenografts. The arrangement: species or system SCID or nude mice; key to tumor response (regression class): CR: complete regression (majority response on treatment is that tumors become undetectable); PR: partial regression (majority response on treatment is that tumors shrink by at least […]). As to the method: Female immune deficient mice (Charles River, 4-6 wks age) were anesthetized with Ketamine-Xylazine (140 mg/kg-14 mg/kg ip) and shaved. Puralube eye ointment was applied to the eyes to prevent desiccation of the corneas. Betadine and 70% ethanol was applied to the shaved location to sterilize the skin at the location of the incision. The animals were placed in a biosafety cabinet for the duration of the surgery. Using scissors, an 8 to 10 mm incision was made in the lateral flank of the skin. A tumor fragment weighing between 50 and 150 mg was placed under the skin at the incision site using forceps, and staples were used to close the incision. The staples were removed 5 to 7 days after surgery. Starting approximately two weeks after implantation, animals were weighed, and tumors were measured using caliper twice weekly. Tumor volume was calculated using the formula: volume=length×width^2×0.52.
Compound administration began when xenografts reached approximately 100-300 mm3 and continued until control xenografts reached […] of the animal's body weight. Test compounds were administered orally by gastric gavage. Percent tumor growth inhibition (TG) was calculated on the indicated treatment day. Percent TGI is defined as: [1−(del T/del C)]×100%, where del T is the final minus initial average volumes of the treated group, and del C is the final minus initial average volumes of the control group. […] The tested compounds were administered orally. Vehicle control consisted of either 0.5% methylcellulose/0.1% sodium lauryl sulfate or 20% captisol. Tumor volumes were determined by caliper measurement twice a week.
Tumors were engrafted in either SCID or nude mice. Compound 136 was administered orally once a day (QD) at 100 mg/kg. Vehicle control consisted of 0.5 methylcellulose/0.10% sodium lauryl sulfate. Tumor volumes were determined by caliper measurement twice a week. TG tumor growth inhibition at end of treatment. CR: complete regression (majority response on treatment is that tumors become undetectable), PR: partial regression (majority response on treatment is that tumors shrink by at least […]).

The next data set has as its system lung PDX models. The data set can be described thus: Response of lung PDX models with highest and lowest WFS1 gene expression. Type of data set: in vivo. The settings on record: 10 highest and 10 lowest WFS1 expressing lung PDX models. The text has this: Finally, an in vivo study was run to evaluate the relationship between WFS1 expression in patient derived xenografts (PDX). To do this, the 10 lung PDX models with the highest WFS1 gene expression and the 10 lung PDX models with the lowest WFS1 gene expression were selected from the Oncotest compendium.

Where [4] appears, read: Bladder BXF 1036, 100 mg/kg QD oral, 21 days.
[5] abbreviates: Kidney RXF 631, 100 mg/kg QD oral, 21 days.
[6] abbreviates: Melanoma MEXF 1765, 100 mg/kg QD oral, 21 days.
The mark [7] stands for this setting: Multiple myeloma NCI-H929, 100 mg/kg QD oral, 21 days.
The mark [8] stands for this setting: Multiple myeloma OPM2, 100 mg/kg QD oral, 21 days.
[9] abbreviates: Non-small cell lung LXFL 529, 100 mg/kg QD oral, 21 days.
The mark [10] stands for this setting: Non-small cell lung LXFL 625, 100 mg/kg QD oral, 21 days.
Setting [11] is: Non-small cell lung LXFL 2207, 100 mg/kg QD oral, 21 days.
[12] abbreviates: Non-small cell lung OD26749, 100 mg/kg QD oral, 21 days.
The mark [13] stands for this setting: Non-small cell lung OD33966, 100 mg/kg QD oral, 21 days.

What is called melting point is the temperature of the solid-liquid transition. With `COc1c(F)cc(Cn2cc(CNc3nc(C)c4c(n3)N(C)[C@@H](C)C(=O)N4)cn2)cc1F` [Compound 46, (7S)-2-(((1-(3,5-difluoro-4-methoxybenzyl)-1H-pyrazol-4-yl)methyl)amino)-4,7,8-trimethyl-7,8-dihydropteridin-6(5H)-one], the melting point was 136 to 138 °C.
For the molecule `Cc1nc(NCc2cnn(Cc3ccc(C(F)(F)F)nc3)c2)nc2c1NC(=O)[C@H](C)N2C` [Compound 136, (7S)-4,7,8-trimethyl-2-(((1-((6-(trifluoromethyl)pyridin-3-yl)methyl)-111-pyrazol-4-yl)methyl)amino)-7,8-dihydropteridin-6(5H)-one], in data set [1], the “effect of WFS1 depletion on ability to induce calcium flux” value is given as “completely eliminated”. The “reduction in the EC50 on over-expression of WFS1” value in data set [2] is recorded as “approximately 10 fold”. Further, the “% TGI” value was over 100% in data set [3] (setting [4]); 99% in data set [3] (Breast DU4475, 100 mg/kg QD oral, 14 days); 89% in data set [3] (setting [5]); over 100% in data set [3] (setting [6]); over 100% in data set [3] (setting [7]); over 100% in data set [3] (setting [8]). The “% TGI” value in data set [3] (setting [9]), in data set [3] (setting [10]), in data set [3] (setting [11]), in data set [3] (setting [12]) and in data set [3] (setting [13]) was over 100% each time. The “Body weight change at end of treatment” value in data set [3] (setting [4]) is listed as “+5.5%”; in data set [3] (setting [5]), “+6.2%”; in data set [3] (setting [6]) it was “+9.8%”; in data set [3] (setting [7]) it was “+1.8%”; in data set [3] (setting [8]), −0.9%; in data set [3] (setting [9]), “+5.5%”. In addition, the “Body weight change at end of treatment” value in data set [3] (setting [10]) was “+3.7%”; in data set [3] (setting [11]) it was “+1.5%”; in data set [3] (setting [12]), −0.1%; in data set [3] (setting [13]) it was “+4.5%”. Besides, the “tumor response (regression class)” value was “PR” in data set [3] (setting [4]); “CR” in data set [3] (setting [6]); “CR” in data set [3] (setting [7]); “CR” in data set [3] (setting [8]); “CR” in data set [3] (setting [9]); “CR” in data set [3] (setting [10]). The entries for the “tumor response (regression class)” value in data set [3] (setting [11]), in data set [3] (setting [12]) and in data set [3] (setting [13]) were “PR”, “CR” and “PR”, respectively. Moreover, in data set [3] (orally once a day (QD) at 100 mg/kg, SCID or nude mice), the “growth of tumor xenografts” value is “inhibits growth of tumor xenografts derived from multiple cancer types”. The “association between WFS1 gene expression and response in PDX models” value with lung PDX models is “strong association”.
